Assay results as given in PMC2713365 (International journal for parasitology, 2009).

Columns and labels:
AsGAR-1 [1] = molecular target: T1, AsGAR-1 (Ascaris suum, UniProt C0KJK1); assay: cell-based; conditions: read-out: yeast functional expression, growth reporter, agonist at 10^-4 M
AsGAR-1 [2] = molecular target: T1, AsGAR-1; assay: yeast functional expression, antagonism of […] ACh by […] compound; assay type: cell-based; conditions: read-out: % inhibition at 10^-4 M
AsGAR-1 [3] = molecular target: T1, AsGAR-1; assay: as above; assay type: cell-based; conditions: read-out: % of control growth at 10^-4 M

COC(=O)C1=CCCN(C)C1 [Arec, arecoline]
fold induction at 100 µM (AsGAR-1 [1]): 10.2 ± 1.6

CN1[C@@H]2CC[C@H]1C[C@@H](OC(=O)C(CO)c1ccccc1)C2 (some centres unmarked) [Atr, atropine]
inhibition at 100 µM (AsGAR-1 [2]): 62.2%

CC(C[N+](C)(C)C)OC(N)=O (centres unmarked) [Beth, bethanechol]
fold induction at 100 µM (AsGAR-1 [1]): 7.7 ± 0.8

C[N+](C)(C)CCOC(N)=O [Carb, carbachol]
fold induction at 100 µM (AsGAR-1 [1]): 10.8 ± 1.7

CN1CCN2c3ccccc3Cc3ccccc3C2C1 (centres unmarked) [Mian, mianserin]
remaining activity at 100 µM (AsGAR-1 [3]): 24 ± 0.1%

C[N+](C)(C)CC#CCN1CCCC1=O [Oxo, oxotremorine M]
fold induction at 100 µM (AsGAR-1 [1]): 8.2 ± 1.7

CC(C)NCC(O)COc1cccc2ccccc12 (centres unmarked) [Prop, propranolol]
remaining activity at 100 µM (AsGAR-1 [3]): 41.2 ± 8.9%

O=C(CCCN1CCC2(CC1)C(=O)NCN2c1ccccc1)c1ccc(F)cc1 [Spip, spiperone]
remaining activity at 100 µM (AsGAR-1 [3]): 52.8 ± 7.6%
